Data: article PMC9101087, “A Sensitive LC-MS/MS Method for the Simultaneous Determination of Two Thia-Analogous Indirubin N-Glycosides and Indirubin-3′-Monoxime in Plasma and Cell Culture Medium” (Molecules, 2022)

Legend:
[1] = Storage stability in human plasma, LC-MS/MS after plasma precipitation; type: in vitro ADME; conditions: for Stability 4 °C / Stability AS (autosampler) / Stability −20 °C / Stability BT (benchtop): 24 h; for Stability FT (freeze-thaw): freeze-thaw cycles; for Stability BT (benchtop): room temperature
Method: (§1) To assess stability, low and high concentrations of all analytes were subjected to different storage conditions. […] For determination of long-term stability, samples were stored in either plasma or DMEM at –80 °C for 90 and 91 days, respectively. To measure short-term stability, samples were stored at room temperature, in an autosampler, at 4 °C, and at –20 °C for 24 h. In addition, freeze-thaw cycles were performed according to FDA guidance for the standard solutions. For comparison, at least three freshly prepared samples were prepared for each concentration level. With the exception of autosampler stability, the internal standard was always added to all samples before sample processing was started.
After mixing the 1.5 µM internal standard and the plasma sample, protein precipitation was commenced. Next, 190 µL of acetonitrile and 50 µL of 0.5 M sulfuric acid buffer were added. The tubes were then shaken at 1400 rpm for 5 min followed by centrifugation at 14,000 rpm for 5 min. Subsequently, 195 µL of the supernatant was transferred to an LC tube and analyzed.
(§2) To assess stability, low and high concentrations of all analytes were exposed to different storage conditions. To determine long-term stability, samples were stored in either plasma or DMEM at −80 °C for 90 and 91 days, respectively. To determine short-term stability, samples were stored for 24 h on the bench at room temperature, in the autosampler, at 4 °C, and at −20 °C. In addition, freeze-thaw cycles were performed for the standard solutions according to FDA guidance. At least three freshly prepared samples per concentration level were prepared for comparison. With the exception of the stability test in the autosampler, the internal standard was always added to all samples before sample processing was started. However, to avoid concentration fluctuations due to possible degradation of the analytes, stock solutions were prepared twice a week and stored at −20 °C. Each storage condition was examined in the dark. For all conditions studied, n = 3–6 replicates were prepared.

[2] = as above; type: in vitro ADME; conditions: long-term freezing
[3] = Storage stability in DMEM, LC-MS/MS after DMEM extraction; type: physicochemical; conditions: for Stability 4 °C / Stability AS (autosampler) / Stability −20 °C / Stability BT (benchtop): 24 h; for Stability FT (freeze-thaw): freeze-thaw cycles; for Stability −80 °C 91 d: long-term freezing; for Stability BT (benchtop): room temperature
Method: as §1
Regarding the medium, validation procedures were performed with high-glucose DMEM supplemented with 100 U/mL penicillin and 100 μg/mL streptomycin, but not with FBS. With the exception of selectivity, where both media (GlutaMAX™-I or UltraGlutamine^TM I supplement) were tested, only Gibco™ DMEM with GlutaMAX™-I was used for all other analytical procedures.
Liquid-liquid extraction was performed identically for plasma and DMEM samples. After addition of the 1.0 µM internal standard, 50 µL of 0.8 M alkaline carbonate buffer was added. The extraction was performed once with 890 µL ethyl acetate. Tubes were then shaken for 10 min at 1400 rpm using a Thermomixer 5436 (Eppendorf AG, Hamburg, Germany) followed by centrifugation for 5 min at 14,000 rpm using a Centrifuge 5415 C (Eppendorf AG, Hamburg, Germany). Subsequently, 850 µL of the supernatant was transferred to a new tube and evaporated to dryness for 35 min at 35 °C (8 min heating time) using a SpeedVac SPD130DLX (Thermo Fisher Scientific, Asheville, NC, USA). Reconstitution was performed with 200 µL of a acetonitrile/water/H2SO4 [3/0.5/0.5] mixture, shaken at 1400 rpm for 5 min, and centrifuged again at 14,000 rpm for 5 min. Finally, 155 µL of the sample was transferred to an LC vial and analyzed.
as §2

| Structure (SMILES) | Stability 4 °C ([1]; 2.0 nM) [%] | Stability AS (autosampler) ([1]; 2.0 nM) [%] | Stability −20 °C ([1]; 2.0 nM) [%] | Stability FT (freeze-thaw) ([1]; 2.0 nM) [%] | Stability BT (benchtop) ([1]; 2.0 nM) [%] | Stability 4 °C ([1]; 167 nM) [%] | Stability AS (autosampler) ([1]; 167 nM) [%] | Stability −20 °C ([1]; 167 nM) [%] | Stability FT (freeze-thaw) ([1]; 167 nM) [%] | Stability BT (benchtop) ([1]; 167 nM) [%] | Stability −80 °C 91 d ([2]; 2.0 nM) [%] | Stability −80 °C 91 d ([2]; 167 nM) [%] | Stability 4 °C ([3]; 3.0 nM) [%] | Stability AS (autosampler) ([3]; 3.0 nM) [%] | Stability −20 °C ([3]; 3.0 nM) [%] | Stability FT (freeze-thaw) ([3]; 3.0 nM) [%] | Stability −80 °C 91 d ([3]; 3.0 nM) [%] | Stability BT (benchtop) ([3]; 3.0 nM) [%] | Stability 4 °C ([3]; 40 nM) [%] | Stability AS (autosampler) ([3]; 40 nM) [%] | other results |
| --- | --- | --- | --- | --- | --- | --- | --- | --- | --- | --- | --- | --- | --- | --- | --- | --- | --- | --- | --- | --- | --- |
| O=C1/C(=C2/C(=O)N([C@@H]3O[C@H](CO)[C@@H](O)[C@H](O)[C@H]3O)c3ccccc32)Sc2ccccc21 [KD87, 3-[3′-oxo-benzo[b]thiophen-2′-(Z)-ylidene]-1-(β-D-glucopyranosyl)-oxindole] | 81.4 ± 3.1 | 105.7 ± 6.7 | 94.6 ± 2.8 | 98.8 ± 5.6 | 64.3 ± 5.6 | 84.5 ± 2.0 | 99.9 ± 4.8 | 92.6 ± 2.6 | 97.9 ± 4.1 | 75.0 ± 3.5 | 96.7 ± 8.6 | 106.0 ± 1.4 | 81.4 ± 3.3 | 101.2 ± 7.4 | 87.7 ± 3.2 | 98.3 ± 5.4 | 97.8 ± 6.0 | 104.9 ± 4.0 | 84.5 ± 2.1 | 81.7 ± 3.7 | Stability −20 °C ([3]; 40 nM): 84.2 ± 2.6%; Stability FT (freeze-thaw) ([3]; 40 nM): 101.9 ± 5.4%; Stability −80 °C 91 d ([3]; 40 nM): 92.3 ± 7.8%; Stability BT (benchtop) ([3]; 40 nM): 98.3 ± 1.1% |
| O=C1/C(=C2/C(=O)N([C@@H]3O[C@H](CO)[C@@H](O)[C@H](O)[C@@H]3O)c3ccccc32)Sc2ccccc21 [KD85, 3-[3′-oxo-benzo[b]thiophene-2′-(Z)-ylidene]-1-(β-D-mannopyranosyl)-oxindole] | 81.3 ± 3.4 | 97.6 ± 8.0 | 90.1 ± 5.7 | 107.9 ± 4.9 | 57.5 ± 4.1 | 85.5 ± 1.9 | 99.6 ± 4.1 | 96.3 ± 2.3 | 99.5 ± 3.8 | 70.3 ± 3.2 | 105.1 ± 12.4 | 108.2 ± 3.7 | 98.3 ± 2.2 | 75.6 ± 5.8 | 86.8 ± 1.8 | 99.4 ± 4.0 | 93.2 ± 6.9 | 115.3 ± 1.8 | 80.5 ± 1.8 | 71.6 ± 1.9 | Stability −20 °C ([3]; 40 nM): 81.9 ± 3.9%; Stability FT (freeze-thaw) ([3]; 40 nM): 99.9 ± 3.3%; Stability −80 °C 91 d ([3]; 40 nM): 92.7 ± 5.7%; Stability BT (benchtop) ([3]; 40 nM): 100.5 ± 1.9% |
